# Reference: patent US9695155B2, “Herbicidal substituted pyrimidinyloxy benzene compounds” (E. I. DU PONT DE NEMOURS AND COMPANY, priority 2013, dated 2017)
# Experiments:
# field poppy = experiment: Test D preemergence; type: in vivo, Papaver rhoeas
# Description: (§1) Seeds of plant species selected from bluegrass (annual bluegrass, Poa annua), blackgrass (Alopecurus myosuroides), canarygrass (littleseed canarygrass, Phalaris minor), chickweed (common chickweed, Stellaria media), galium (catchweed bedstraw, Galium aparine), bromegrass, downy (downy bromegrass, Bromus tectorum), field poppy (Papaver rhoeas), field violet (Viola arvensis), green foxtail (Setaria viridis), deadnettle (henbit deadnettle, Lamium amplexicaule), Italian ryegrass (Lolium multiflorum), kochia (Kochia scoparia), lambsquarters (Chenopodium album), oilseed rape (Brassica napus), pigweed (Amaranthus retroflexus), chamomile (scentless chamomile, Matricaria inodora), Russian thistle (Salsola kali), speedwell (bird's-eye speedwell, Veronica persica), spring barley (Hordeum vulgare), spring wheat (Triticum aestivum), wild buckwheat (Polygonum convolvulus), wild mustard (Sinapis arvensis), wild oat (Avena fatua), wild radish (Raphanus raphanistrum), windgrass (Apera spica-venti), winter barley (Hordeum vulgare), and winter wheat (Triticum aestivum) were planted into a silt loam soil and treated preemergence with test chemicals formulated in a non-phytotoxic solvent mixture which included a surfactant.
# (§2) At the same time, these species were planted in pots containing Redi-Earth® planting medium (Scotts Company, 14111 Scottslawn Road, Marysville, Ohio 43041) comprising spaghnum peat moss, vermiculite, wetting agent and starter nutrients and treated with postemergence applications of the test chemicals formulated in the same manner. Plants ranged in height from 2 to 18 cm (1- to 4-leaf stage). Treated plants and controls were maintained in a controlled growth environment for 7 to 21 days after which time all species were compared to controls and visually evaluated. Plant response ratings, summarized in Table D, are based on a scale of 0 to 100 where 0 is no effect and 100 is complete control. A dash (-) response means no test result.
# spring wheat [1] = experiment: Test D postemergence; type: in vivo, Triticum aestivum
# Description: as §1, §2
# winter wheat [2] = experiment: Test D postemergence; type: in vivo, Triticum aestivum
# Description: as §1, §2
# field violet = experiment: Test D postemergence; type: in vivo, Viola arvensis
# Description: as §1, §2
# spring wheat [3] = experiment: Test D preemergence; type: in vivo, Triticum aestivum
# Description: as §1, §2
# winter wheat [4] = experiment: Test D preemergence; type: in vivo, Triticum aestivum
# Description: as §1, §2
# [5] = 16 g ai/ha, scale 0 (no effect) to 100 (complete control)
# [6] = 31 g ai/ha, scale 0 to 100 (0 no effect, 100 complete control)
# [7] = 62 g ai/ha, scale 0 to 100 (0 no effect, 100 complete control)
# [8] = 125 g ai/ha, scale 0 to 100 (0 no effect, 100 complete control)
# [9] = 250 g ai/ha, scale 0 to 100 (0 no effect, 100 complete control)
# [10] = 31 g ai/ha, scale 0 (no effect) to 100 (complete control)
structure (smiles),measurement,setting,value
Clc1cnc(Oc2ccccc2-n2cc(Cl)cn2)nc1 [Compound 3],"Plant response rating, Field Poppy",field poppy; [5],40
same,"Plant response rating, Field Poppy","field poppy; 62 g ai/ha, scale 0-100",40
same,"Plant response rating, Field Poppy","field poppy; 125 g ai/ha, scale 0-100",70
same,"Plant response rating, Field Poppy","field poppy; 250 g ai/ha, scale 0-100",80
same,"Plant response rating, Wheat, Spring","spring wheat [1]; 16 g ai/ha, scale 0-100",60
same,"Plant response rating, Wheat, Spring",spring wheat [1]; [6],0
same,"Plant response rating, Wheat, Spring",spring wheat [1]; [7],0
same,"Plant response rating, Wheat, Spring",spring wheat [1]; [8],0
same,"Plant response rating, Wheat, Spring",spring wheat [1]; [9],0
same,"Plant response rating, Wheat, Winter","winter wheat [2]; 16 g ai/ha, scale 0-100",65
same,"Plant response rating, Wheat, Winter",winter wheat [2]; [6],0
same,"Plant response rating, Wheat, Winter",winter wheat [2]; [7],0
same,"Plant response rating, Wheat, Winter",winter wheat [2]; [8],0
same,"Plant response rating, Wheat, Winter",winter wheat [2]; [9],0
same,"Plant response rating, Field Violet","field violet; 16 g ai/ha, scale 0-100",20
same,"Plant response rating, Field Violet",field violet; [6],5
same,"Plant response rating, Field Violet",field violet; [7],5
same,"Plant response rating, Field Violet",field violet; [8],5
same,"Plant response rating, Field Violet",field violet; [9],20
same,"Plant response rating, Wheat, Spring",spring wheat [3]; [5],0
same,"Plant response rating, Wheat, Spring",spring wheat [3]; [10],0
same,"Plant response rating, Wheat, Spring","spring wheat [3]; 62 g ai/ha, scale 0-100",0
same,"Plant response rating, Wheat, Spring","spring wheat [3]; 125 g ai/ha, scale 0-100",0
same,"Plant response rating, Wheat, Spring","spring wheat [3]; 250 g ai/ha, scale 0-100",0
same,"Plant response rating, Wheat, Winter",winter wheat [4]; [5],0
same,"Plant response rating, Wheat, Winter",winter wheat [4]; [10],0
same,"Plant response rating, Wheat, Winter","winter wheat [4]; 62 g ai/ha, scale 0-100",0
same,"Plant response rating, Wheat, Winter","winter wheat [4]; 125 g ai/ha, scale 0-100",0
same,"Plant response rating, Wheat, Winter","winter wheat [4]; 250 g ai/ha, scale 0-100",0
"FC(F)(F)c1cn(-c2ccccc2Oc2ncc(Cl)cn2)nn1 [Compound 166, 5-chloro-2-[2-[4-(trifluoromethyl)-1H-1,2,3-triazol-1-yl]phenoxy]pyrimidine]",pest or weed control at 16 g/ha,"field poppy; Papaver rhoeas, pre-emergence, 16 g ai/ha, scale 0 (no effect) to 100 (complete control), read-out: Plant response rating, Field Poppy",100%
same,pest or weed control at 31 g/ha,"field poppy; Papaver rhoeas, pre-emergence, 31 g ai/ha, scale 0-100, read-out: Plant response rating, Field Poppy",100%
same,pest or weed control at 62 g/ha,"field poppy; Papaver rhoeas, pre-emergence, 62 g ai/ha, scale 0-100, read-out: Plant response rating, Field Poppy",100%
same,pest or weed control at 125 g/ha,"field poppy; Papaver rhoeas, pre-emergence, 125 g ai/ha, scale 0-100, read-out: Plant response rating, Field Poppy",100%
same,plant injury at 16 g/ha,"spring wheat [1]; Triticum aestivum, post-emergence, 16 g ai/ha, scale 0-100, read-out: Plant response rating, Wheat, Spring",5%
same,plant injury at 31 g/ha,"spring wheat [1]; Triticum aestivum, post-emergence, 31 g ai/ha, scale 0 to 100 (0 no effect, 100 complete control), read-out: Plant response rating, Wheat, Spring",10%
same,plant injury at 62 g/ha,"spring wheat [1]; Triticum aestivum, post-emergence, 62 g ai/ha, scale 0 to 100 (0 no effect, 100 complete control), read-out: Plant response rating, Wheat, Spring",25%
same,plant injury at 125 g/ha,"spring wheat [1]; Triticum aestivum, post-emergence, 125 g ai/ha, scale 0 to 100 (0 no effect, 100 complete control), read-out: Plant response rating, Wheat, Spring",35%
same,plant injury at 16 g/ha,"winter wheat [2]; Triticum aestivum, post-emergence, 16 g ai/ha, scale 0-100, read-out: Plant response rating, Wheat, Winter",5%
same,plant injury at 31 g/ha,"winter wheat [2]; Triticum aestivum, post-emergence, 31 g ai/ha, scale 0 to 100 (0 no effect, 100 complete control), read-out: Plant response rating, Wheat, Winter",15%
same,plant injury at 62 g/ha,"winter wheat [2]; Triticum aestivum, post-emergence, 62 g ai/ha, scale 0 to 100 (0 no effect, 100 complete control), read-out: Plant response rating, Wheat, Winter",30%
same,plant injury at 125 g/ha,"winter wheat [2]; Triticum aestivum, post-emergence, 125 g ai/ha, scale 0 to 100 (0 no effect, 100 complete control), read-out: Plant response rating, Wheat, Winter",40%
same,pest or weed control at 16 g/ha,"field violet; Viola arvensis, post-emergence, 16 g ai/ha, scale 0-100, read-out: Plant response rating, Field Violet",60%
same,pest or weed control at 31 g/ha,"field violet; Viola arvensis, post-emergence, 31 g ai/ha, scale 0 to 100 (0 no effect, 100 complete control), read-out: Plant response rating, Field Violet",65%
same,pest or weed control at 62 g/ha,"field violet; Viola arvensis, post-emergence, 62 g ai/ha, scale 0 to 100 (0 no effect, 100 complete control), read-out: Plant response rating, Field Violet",70%
same,pest or weed control at 125 g/ha,"field violet; Viola arvensis, post-emergence, 125 g ai/ha, scale 0 to 100 (0 no effect, 100 complete control), read-out: Plant response rating, Field Violet",85%
same,plant injury at 16 g/ha,"spring wheat [3]; Triticum aestivum, pre-emergence, 16 g ai/ha, scale 0 (no effect) to 100 (complete control), read-out: Plant response rating, Wheat, Spring",0%
same,plant injury at 31 g/ha,"spring wheat [3]; Triticum aestivum, pre-emergence, 31 g ai/ha, scale 0 (no effect) to 100 (complete control), read-out: Plant response rating, Wheat, Spring",0%
same,plant injury at 62 g/ha,"spring wheat [3]; Triticum aestivum, pre-emergence, 62 g ai/ha, scale 0-100, read-out: Plant response rating, Wheat, Spring",10%
same,plant injury at 125 g/ha,"spring wheat [3]; Triticum aestivum, pre-emergence, 125 g ai/ha, scale 0-100, read-out: Plant response rating, Wheat, Spring",60%
same,plant injury at 16 g/ha,"winter wheat [4]; Triticum aestivum, pre-emergence, 16 g ai/ha, scale 0 (no effect) to 100 (complete control), read-out: Plant response rating, Wheat, Winter",0%
same,plant injury at 31 g/ha,"winter wheat [4]; Triticum aestivum, pre-emergence, 31 g ai/ha, scale 0 (no effect) to 100 (complete control), read-out: Plant response rating, Wheat, Winter",0%
same,plant injury at 62 g/ha,"winter wheat [4]; Triticum aestivum, pre-emergence, 62 g ai/ha, scale 0-100, read-out: Plant response rating, Wheat, Winter",0%
same,plant injury at 125 g/ha,"winter wheat [4]; Triticum aestivum, pre-emergence, 125 g ai/ha, scale 0-100, read-out: Plant response rating, Wheat, Winter",25%
